According to PubChem BioAssay (NCI):
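Here, GI50 denotes the concentration required for 50% inhibition of growth. At the TGI there is no net growth.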

Columns and labels:
Test in all cases: NCI-60 cell line screen, 384-well format
MDA-MB-435 melanoma = system: MDA-MB-435 melanoma
T-47D breast = system: T-47D breast
KM12 colon = system: KM12 colon
MCF7 breast = system: MCF7 breast
HL-60(TB) leukemia = system: HL-60(TB) leukemia
SF-268 CNS = system: SF-268 CNS
NCI/ADR-RES ovarian = system: NCI/ADR-RES ovarian
DU-145 prostate = system: DU-145 prostate
A549 NSCLC = system: A549 NSCLC
HCT-15 colon = system: HCT-15 colon
EKVX NSCLC = system: EKVX NSCLC
OVCAR-4 ovarian = system: OVCAR-4 ovarian
786-0 renal = system: 786-0 renal
NCI-H226 lung = system: NCI-H226 lung
IGROV1 ovarian = system: IGROV1 ovarian
UACC-257 melanoma = system: UACC-257 melanoma
SK-OV-3 ovarian = system: SK-OV-3 ovarian
OVCAR-3 ovarian = system: OVCAR-3 ovarian
SF-295 CNS = system: SF-295 CNS
SW-620 colon = system: SW-620 colon
NCI-H23 lung = system: NCI-H23 lung
K-562 leukemia = system: K-562 leukemia
NCI-H322M lung = system: NCI-H322M lung
SNB-19 CNS = system: SNB-19 CNS
HCC-2998 colon = system: HCC-2998 colon
LOX IMVI melanoma = system: LOX IMVI melanoma
SF-539 CNS = system: SF-539 CNS
SK-MEL-5 melanoma = system: SK-MEL-5 melanoma
HT29 colon = system: HT29 colon
A498 renal = system: A498 renal
ACHN renal = system: ACHN renal
UO-31 renal = system: UO-31 renal
MDA-MB-231 breast = system: MDA-MB-231 breast
OVCAR-5 ovarian = system: OVCAR-5 ovarian
SN12C renal = system: SN12C renal
SK-MEL-28 melanoma = system: SK-MEL-28 melanoma
SR leukemia = system: SR leukemia
PC-3 prostate = system: PC-3 prostate
UACC-62 melanoma = system: UACC-62 melanoma
RPMI-8226 leukemia = system: RPMI-8226 leukemia
CCRF-CEM leukemia = system: CCRF-CEM leukemia
HOP-62 NSCLC = system: HOP-62 NSCLC
CAKI-1 renal = system: CAKI-1 renal
MOLT-4 leukemia = system: MOLT-4 leukemia
NCI-H522 lung = system: NCI-H522 lung
NCI-H460 NSCLC = system: NCI-H460 NSCLC
M14 melanoma = system: M14 melanoma
HOP-92 NSCLC = system: HOP-92 NSCLC
TK-10 renal = system: TK-10 renal
U251 glioblastoma = system: U251 glioblastoma
HCT-116 colon = system: HCT-116 colon
MALME-3M melanoma = system: MALME-3M melanoma
SK-MEL-2 melanoma = system: SK-MEL-2 melanoma
SNB-75 CNS = system: SNB-75 CNS
BT-549 breast = system: BT-549 breast
COLO 205 colon = system: COLO 205 colon
RXF 393 renal = system: RXF 393 renal
OVCAR-8 ovarian = system: OVCAR-8 ovarian
MDA-MB-468 breast = system: MDA-MB-468 breast

CC(C)(C[C@H]1CN(S(=O)(=O)c2cccc(C(F)(F)F)c2)c2cc(-c3cc(F)cc(OC(F)F)c3)ccc2O1)C(=O)O
GI50 (MDA-MB-435 melanoma): 2040 nM
TGI (MDA-MB-435 melanoma): 4.48 µM
GI50 (T-47D breast): 5.89 µM
TGI (T-47D breast): 18.9 µM
GI50 (KM12 colon): 4.06 µM
TGI (KM12 colon): 14.4 µM
GI50 (MCF7 breast): 4.82 µM
TGI (MCF7 breast): 17.2 µM
GI50 (HL-60(TB) leukemia): 2740 nM
TGI (HL-60(TB) leukemia): 4.91 µM
GI50 (SF-268 CNS): 9.85 µM
TGI (SF-268 CNS): 22.6 µM
GI50 (NCI/ADR-RES ovarian): 2520 nM
TGI (NCI/ADR-RES ovarian): 7.17 µM
GI50 (DU-145 prostate): 10.1 µM
TGI (DU-145 prostate): 21.9 µM
GI50 (A549 NSCLC): 4.28 µM
TGI (A549 NSCLC): 15.5 µM
GI50 (HCT-15 colon): 4.15 µM
TGI (HCT-15 colon): 14.1 µM
GI50 (EKVX NSCLC): 10.7 µM
TGI (EKVX NSCLC): 22.8 µM
GI50 (OVCAR-4 ovarian): 9.12 µM
TGI (OVCAR-4 ovarian): 21.5 µM
GI50 ([…]-0 renal): 9.51 µM
TGI (786-0 renal): 22.8 µM
GI50 (NCI-H226 lung): 8.64 µM
TGI (NCI-H226 lung): 22 µM
GI50 (IGROV1 ovarian): 7.94 µM
TGI (IGROV1 ovarian): 20.9 µM
GI50 (UACC-257 melanoma): 8.84 µM
TGI (UACC-257 melanoma): 23.2 µM
GI50 (SK-OV-3 ovarian): 9.09 µM
TGI (SK-OV-3 ovarian): 21.4 µM
GI50 (OVCAR-3 ovarian): 2460 nM
TGI (OVCAR-3 ovarian): 7.45 µM
GI50 (SF-295 CNS): 3.02 µM
TGI (SF-295 CNS): 10.3 µM
GI50 (SW-620 colon): 2920 nM
TGI (SW-620 colon): 7.59 µM
GI50 (NCI-H23 lung): 3.38 µM
TGI (NCI-H23 lung): 10.7 µM
GI50 (K-562 leukemia): 3.18 µM
TGI (K-562 leukemia): 12.1 µM
GI50 (NCI-H322M lung): 12.6 µM
TGI (NCI-H322M lung): 25.6 µM
GI50 (SNB-19 CNS): 8.54 µM
TGI (SNB-19 CNS): 20.5 µM
GI50 (HCC-2998 colon): 6.63 µM
TGI (HCC-2998 colon): 20.7 µM
GI50 (LOX IMVI melanoma): 12.8 µM
TGI (LOX IMVI melanoma): 25.4 µM
GI50 (SF-539 CNS): 6 µM
TGI (SF-539 CNS): 18.4 µM
GI50 (SK-MEL-5 melanoma): 3.86 µM
TGI (SK-MEL-5 melanoma): 13.5 µM
GI50 (HT29 colon): 3.97 µM
TGI (HT29 colon): 13.6 µM
GI50 (A498 renal): 4.35 µM
TGI (A498 renal): 15.5 µM
GI50 (ACHN renal): 13.4 µM
TGI (ACHN renal): 26.7 µM
GI50 (UO-31 renal): 10.5 µM
TGI (UO-31 renal): 22.3 µM
GI50 (MDA-MB-231 breast): 8.82 µM
TGI (MDA-MB-231 breast): 21.4 µM
GI50 (OVCAR-5 ovarian): 16.3 µM
TGI (OVCAR-5 ovarian): 29.9 µM
GI50 (SN12C renal): 10.3 µM
TGI (SN12C renal): 22.4 µM
GI50 (SK-MEL-28 melanoma): 7.37 µM
TGI (SK-MEL-28 melanoma): 20.1 µM
GI50 (SR leukemia): 1510 nM
TGI (SR leukemia): 2900 nM
GI50 (PC-3 prostate): 8.44 µM
TGI (PC-3 prostate): 20.8 µM
GI50 (UACC-62 melanoma): 3.84 µM
TGI (UACC-62 melanoma): 13.6 µM
GI50 (RPMI-8226 leukemia): 2780 nM
TGI (RPMI-8226 leukemia): 6.15 µM
GI50 (CCRF-CEM leukemia): 6.52 µM
TGI (CCRF-CEM leukemia): 18.4 µM
GI50 (HOP-62 NSCLC): 4.81 µM
TGI (HOP-62 NSCLC): 16.7 µM
GI50 (CAKI-1 renal): 6.92 µM
TGI (CAKI-1 renal): 19 µM
GI50 (MOLT-4 leukemia): 3.11 µM
TGI (MOLT-4 leukemia): 8.3 µM
GI50 (NCI-H522 lung): 2660 nM
TGI (NCI-H522 lung): 7.35 µM
GI50 (NCI-H460 NSCLC): 4.04 µM
TGI (NCI-H460 NSCLC): 13 µM
GI50 (M14 melanoma): 4.53 µM
TGI (M14 melanoma): 15.3 µM
GI50 (HOP-92 NSCLC): 7.09 µM
TGI (HOP-92 NSCLC): 20 µM
GI50 (TK-10 renal): 10.6 µM
TGI (TK-10 renal): 23.1 µM
GI50 (U251 glioblastoma): 7.65 µM
TGI (U251 glioblastoma): 20.2 µM
GI50 (HCT-116 colon): 7.93 µM
TGI (HCT-116 colon): 20.5 µM
GI50 (MALME-3M melanoma): 11.5 µM
TGI (MALME-3M melanoma): 24.5 µM
GI50 (SK-MEL-2 melanoma): 2730 nM
TGI (SK-MEL-2 melanoma): 7.34 µM
GI50 (SNB-75 CNS): 17.4 µM
TGI (SNB-75 CNS): 31.2 µM
GI50 (BT-549 breast): 2800 nM
TGI (BT-549 breast): 9.11 µM
GI50 (COLO 205 colon): 5.83 µM
TGI (COLO 205 colon): 15.3 µM
GI50 (RXF 393 renal): 4.02 µM
TGI (RXF 393 renal): 11.1 µM
GI50 (OVCAR-8 ovarian): 9.79 µM
TGI (OVCAR-8 ovarian): 22.1 µM
GI50 (MDA-MB-468 breast): 2660 nM
TGI (MDA-MB-468 breast): 7.31 µM
